The text below walks through data of ChEMBL document CHEMBL1201862, “PubChem BioAssay data set” (2004).

Active and inactive are the calls of the source. Where only a bound is given, the exact number is not on record here.

The target in one assay is Aspartyl aminopeptidase (Plasmodium falciparum 3D7, UniProt Q8I2J3). The assay is described as follows: Counterscreen for inhibitors of M1 and M17 aminopeptidases: QFRET-based biochemical high throughput dose response assay for inhibitors of the Plasmodium falciparum M18 Aspartyl Aminopeptidase (PFM18AAP). [Related PubChem assays: 1619 (Screening assay (M17LAP inhibitors).), 1445 (Screening assay (M1AAP inhibitors).)]. For orientation: Counterscreens check selectivity or assay interference.
Chain of Aspartyl aminopeptidase (Q8I2J3 whole entry): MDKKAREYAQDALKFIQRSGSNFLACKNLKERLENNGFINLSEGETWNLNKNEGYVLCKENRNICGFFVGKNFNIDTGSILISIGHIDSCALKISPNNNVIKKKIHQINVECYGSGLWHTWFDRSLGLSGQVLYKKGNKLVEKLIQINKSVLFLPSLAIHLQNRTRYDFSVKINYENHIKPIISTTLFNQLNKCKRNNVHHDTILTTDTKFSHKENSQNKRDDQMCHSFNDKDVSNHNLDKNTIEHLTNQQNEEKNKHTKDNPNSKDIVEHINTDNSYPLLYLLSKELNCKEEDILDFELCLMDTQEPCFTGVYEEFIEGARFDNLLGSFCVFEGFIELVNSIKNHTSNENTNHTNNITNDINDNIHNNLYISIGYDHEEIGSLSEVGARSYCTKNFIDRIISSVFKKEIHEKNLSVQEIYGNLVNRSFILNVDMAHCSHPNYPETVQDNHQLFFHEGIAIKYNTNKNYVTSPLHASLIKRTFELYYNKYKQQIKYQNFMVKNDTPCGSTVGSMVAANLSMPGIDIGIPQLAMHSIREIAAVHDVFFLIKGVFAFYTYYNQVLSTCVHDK

A further assay concerns the target T1, Leucine aminopeptidase (Plasmodium falciparum 3D7, UniProt Q8IL11).
T1 sequence (Q8IL11 whole entry): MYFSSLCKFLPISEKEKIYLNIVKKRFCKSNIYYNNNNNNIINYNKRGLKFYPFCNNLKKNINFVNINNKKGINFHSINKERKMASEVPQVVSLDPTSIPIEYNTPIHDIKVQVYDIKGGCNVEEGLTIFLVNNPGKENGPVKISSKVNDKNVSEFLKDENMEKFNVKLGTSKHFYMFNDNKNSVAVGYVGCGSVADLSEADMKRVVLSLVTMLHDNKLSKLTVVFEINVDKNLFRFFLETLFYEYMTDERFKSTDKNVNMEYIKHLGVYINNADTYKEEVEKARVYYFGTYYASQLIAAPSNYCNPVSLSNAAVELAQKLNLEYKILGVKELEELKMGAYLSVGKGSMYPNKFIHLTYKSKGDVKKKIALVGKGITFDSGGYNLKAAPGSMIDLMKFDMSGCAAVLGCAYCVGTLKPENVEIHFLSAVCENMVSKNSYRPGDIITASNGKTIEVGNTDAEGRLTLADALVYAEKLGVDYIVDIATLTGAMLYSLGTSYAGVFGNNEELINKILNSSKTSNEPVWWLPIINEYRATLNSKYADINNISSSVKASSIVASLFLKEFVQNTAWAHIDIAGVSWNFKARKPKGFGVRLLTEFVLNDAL
Put plainly: P. falciparum M17LAP inhibitors, primary screen, biochemical, fluorogenic H-Leu-NHMec substrate, 1536-well (AID 1619). It is filed as functional.

The next assay concerns the target Procathepsin L (Homo sapiens, UniProt P07711). The assay is described as follows: cathepsin L inhibitors, dose response, counter-screen for M1/M17 aminopeptidase inhibitor project, biochemical, QFRET, 1536-well (AID 2214).
A short description of assay [1]: Counterscreen for IDE inhibitors: Luminescence-based cell-based high throughput dose response assay to identify compounds that are cytotoxic to HEK cells. [Related pubchem assays: 434962 (Primary screen (IDE inhibitors in singlicate)), 449730 (Counterscreen (Cytotoxicity in triplicate)), 435028 (Confirmation (IDE inhibitors in triplicate)) …. It is filed as functional. The note with it: HEK293.

The target in a further assay is Oxytocin receptor (Homo sapiens, UniProt P30559). The assay is described as follows: Counterscreen for vasopressin 1 receptor (V1R) agonists: Fluorescence-based cell-based high throughput dose response assay for agonists of the Oxytocin Receptor (OXTR). [Related pubchem assays: 2435 (Primary screen (OXTR agonists in singlicate)), 434964 (Confirmation screen (V1R agonists in triplicate)), 434969 (Counterscreen (OXTR agonists in …. It is filed as functional.
Chain of Oxytocin receptor (P30559 whole entry): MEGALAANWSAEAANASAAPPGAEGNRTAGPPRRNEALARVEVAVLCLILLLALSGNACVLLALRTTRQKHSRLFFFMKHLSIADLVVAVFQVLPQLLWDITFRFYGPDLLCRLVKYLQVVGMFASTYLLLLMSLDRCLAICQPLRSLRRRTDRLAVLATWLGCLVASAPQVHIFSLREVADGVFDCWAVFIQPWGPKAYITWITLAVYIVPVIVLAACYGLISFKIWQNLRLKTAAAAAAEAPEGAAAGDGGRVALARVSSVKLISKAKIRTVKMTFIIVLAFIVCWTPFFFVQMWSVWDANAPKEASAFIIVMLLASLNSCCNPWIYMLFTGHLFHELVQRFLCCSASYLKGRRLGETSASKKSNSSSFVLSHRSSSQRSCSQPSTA

Another assay addresses T2, Insulin-degrading enzyme (Homo sapiens, UniProt P14735).
T2 sequence (P14735 whole entry): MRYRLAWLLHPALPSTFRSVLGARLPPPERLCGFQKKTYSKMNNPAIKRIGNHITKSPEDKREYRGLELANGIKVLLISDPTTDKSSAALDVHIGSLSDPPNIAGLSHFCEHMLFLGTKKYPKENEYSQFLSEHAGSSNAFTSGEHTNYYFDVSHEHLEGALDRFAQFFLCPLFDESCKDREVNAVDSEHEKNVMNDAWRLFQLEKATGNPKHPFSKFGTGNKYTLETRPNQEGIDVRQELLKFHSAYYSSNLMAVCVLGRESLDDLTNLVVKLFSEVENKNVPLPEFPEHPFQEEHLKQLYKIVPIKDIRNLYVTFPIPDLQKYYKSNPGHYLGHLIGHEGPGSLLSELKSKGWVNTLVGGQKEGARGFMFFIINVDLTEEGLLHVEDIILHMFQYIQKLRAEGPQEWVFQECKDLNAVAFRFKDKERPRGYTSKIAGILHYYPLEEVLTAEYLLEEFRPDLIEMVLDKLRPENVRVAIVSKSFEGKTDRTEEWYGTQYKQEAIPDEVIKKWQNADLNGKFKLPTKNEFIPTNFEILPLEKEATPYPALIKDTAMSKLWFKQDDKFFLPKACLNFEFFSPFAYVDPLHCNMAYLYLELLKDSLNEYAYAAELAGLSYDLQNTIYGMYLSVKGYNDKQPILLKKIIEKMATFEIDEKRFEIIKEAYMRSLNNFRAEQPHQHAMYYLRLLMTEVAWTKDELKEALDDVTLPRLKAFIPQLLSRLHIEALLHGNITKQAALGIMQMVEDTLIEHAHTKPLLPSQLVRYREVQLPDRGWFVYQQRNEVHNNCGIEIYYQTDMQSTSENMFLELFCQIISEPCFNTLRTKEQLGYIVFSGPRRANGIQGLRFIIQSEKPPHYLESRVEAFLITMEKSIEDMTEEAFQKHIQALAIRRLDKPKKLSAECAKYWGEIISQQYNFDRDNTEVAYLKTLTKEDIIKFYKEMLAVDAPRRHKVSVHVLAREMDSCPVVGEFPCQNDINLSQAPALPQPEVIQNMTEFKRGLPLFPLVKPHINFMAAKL
Put plainly: Dose Response: Fluorescence polarization-based cell-based high throughput dose response assay for inhibitors of insulin-degrading enzyme (IDE). [Related pubchem assays: 434962 (Primary screen (IDE inhibitors in singlicate)), 449730 (Counterscreen (Cytotoxicity in triplicate)), 435028 (Confirmation (IDE inhibitors in triplicate)), 434984 (Summary …. The assay is classed as functional. On the technique in general: Fluorescence polarisation rises when a labelled molecule tumbles more slowly, as on binding a larger partner.

A further assay deals with Vasopressin V1a receptor (Homo sapiens, UniProt P37288). Put plainly: Fluorescence-based cell-based high throughput dose response screening assay for agonists of the vasopressin 1 receptor (V1R). It is filed as functional.
Chain of Vasopressin V1a receptor (P37288 whole entry): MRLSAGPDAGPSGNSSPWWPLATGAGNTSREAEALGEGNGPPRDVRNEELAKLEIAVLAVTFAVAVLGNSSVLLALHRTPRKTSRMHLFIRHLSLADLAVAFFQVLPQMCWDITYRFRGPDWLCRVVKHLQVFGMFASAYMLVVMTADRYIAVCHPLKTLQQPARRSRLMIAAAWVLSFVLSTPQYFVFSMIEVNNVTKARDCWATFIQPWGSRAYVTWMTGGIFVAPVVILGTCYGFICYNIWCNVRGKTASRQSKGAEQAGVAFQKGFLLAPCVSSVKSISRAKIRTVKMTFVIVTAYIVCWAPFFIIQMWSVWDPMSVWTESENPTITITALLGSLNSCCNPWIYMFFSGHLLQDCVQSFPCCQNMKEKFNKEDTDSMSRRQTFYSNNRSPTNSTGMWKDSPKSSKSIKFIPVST

Chain of Procathepsin L (P07711 whole entry): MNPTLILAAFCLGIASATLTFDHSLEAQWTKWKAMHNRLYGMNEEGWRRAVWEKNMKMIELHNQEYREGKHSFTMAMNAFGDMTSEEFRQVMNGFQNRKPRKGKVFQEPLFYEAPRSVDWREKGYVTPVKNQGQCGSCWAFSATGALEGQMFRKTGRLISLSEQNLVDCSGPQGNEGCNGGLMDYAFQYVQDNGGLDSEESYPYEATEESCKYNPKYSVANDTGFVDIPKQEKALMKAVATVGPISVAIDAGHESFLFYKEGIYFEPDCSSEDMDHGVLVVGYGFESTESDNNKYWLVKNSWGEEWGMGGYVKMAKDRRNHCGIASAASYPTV

Regarding `COc1cc(NC(=O)CSc2nc3ccccc3cc2C)c(C(=O)O)cc1OC`, the IC50 (usually the concentration needed to halve the response being measured) against Aspartyl aminopeptidase is > 73.5 µM (not active); on Leucine aminopeptidase, 1.57 µM (active); on Procathepsin L, > 59.6 µM (not active).

Consider `CC(OC(=O)/C(C#N)=C/c1ccc(N(C)C)cc1)C(=O)N(C)Cc1ccccc1` (configuration not stated), for which the figures for the 50% inhibitory concentration (IC50) (in assay [1]; at Insulin-degrading enzyme) were 16.5 µM (not active) and 12.8 µM (not active), respectively. For the same compound, the EC50 (as a rule, the concentration needed to bring the measured effect to its halfway point) at Oxytocin receptor is > 9.97 µM (active); at Vasopressin V1a receptor it was > 3.32 µM (active).
